Measured values reported in ChEMBL document CHEMBL3351314, “Neutrophil elastase inhibitors as potential anti-inflammatory therapies” (ACS Med Chem Lett, 2014).

Legend:
[1] = target: T1, Neutrophil elastase (Homo sapiens, UniProt P08246); assay: Inhibition of human neutrophil elastase using MeOSuc-Ala-Ala-Pro-Val-AMC as substrate after 15 mins by fluorescence assay
T1 sequence (P08246 whole entry): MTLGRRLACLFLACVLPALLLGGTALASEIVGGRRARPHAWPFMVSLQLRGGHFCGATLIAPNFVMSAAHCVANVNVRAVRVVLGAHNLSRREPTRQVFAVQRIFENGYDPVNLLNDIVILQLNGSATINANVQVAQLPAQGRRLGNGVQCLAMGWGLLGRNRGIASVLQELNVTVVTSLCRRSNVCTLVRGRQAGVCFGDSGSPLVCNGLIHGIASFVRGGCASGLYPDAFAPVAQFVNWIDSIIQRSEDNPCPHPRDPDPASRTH

[2] = target: T1, Neutrophil elastase; assay: Inhibition of neutrophil elastase in human plasma using MeOSuc-Ala-Ala-Pro-Val-AMC as substrate by fluorescence assay

Structure (SMILES) | IC50 [1] [nM] | EC50 [2] [nM]
N#Cc1ccc(C2C3=C(CCC3=O)N(c3cccc(C(F)(F)F)c3)C(=O)N2CC(=O)N2CCC2)cc1 (centres undefined) | 3.7 | 4
CS(=O)(=O)c1cc(C#N)ccc1C1C2=C(CCC2=O)N(c2cccc(C(F)F)c2)C(=O)N1C(=O)N1CC1 (centres undefined) | < 1 | < 1
